Results on one substance are retold here after patent US6716574B2, “Osp-C derived peptide fragments” (Dako A/S, priority 1996, dated 2004).

In assay [1] the test system is IgG antibodies in Lyme borreliosis sera. Kind of assay: IgG antibodies to the C-terminal decapeptide in Lyme borreliosis sera. The assay is classed as binding, human.
Assay [2] deals with IgM in serum from a patient with established neuroborreliosis. As to the kind of experiment: Western blot with the decapeptide as serodiagnostic test antigen. The assay is classed as binding, human. The following applies: 10 ug peptide on nitrocellulose, NB serum 1:100, preliminary experiments. Here is the method:
After three further washes in TRIS buffered saline with Tween, antibody reactive peptide was detected with alkaline phosphatase-coupled rabbit anti-human immune globulin M (DAKO, Denmark; cat. no. 337). The conjugate was diluted 1:1000 in TRIS buffered saline with 1% BSA and the NC membrane was incubated with colour substrate (BCIP and NBT; 1:500) for 10 minutes.

As for “NH2-Pro-Val-Val-Ala-Glu-Ser-Pro-Lys-Lys-Pro-COOH (H-PVVAESPKKP-OH; listed as Borrelia garinii) [SEQ ID NO: 1, C-terminal decapeptide of B. burgdorferi sensu lato OspC]”, the “Lyme borreliosis sera comprising IgG antibodies to the peptide” value in assay [1] is “only few”. Moreover, in assay [2], the “usability as serodiagnostic test antigen in western blot” value is listed as “can be used as a serodiagnostic test antigen”.
